Source: patent US20090137612A1, “Treatment with combined use of oxypurines and ascorbate to prevent and mitigate iron-catalized oxidative damage in Alzheimer's disease and other neurodegenerative disorders” (priority 2007, published 2009)
One block for each compound: values may come before it.

Tests used:
[1] = Inhibition of o-dianisidine oxidation induced by reaction of ferrous sulfate with hydrogen peroxide (colorimetric, 460 nm); format: biochemical
Method: (§1) All chemicals used in the following first 4 EXAMPLES for this invention were of analytical quality. A colorimeter was used to detect peroxidations of o-dianisidine, 9 mg/dL, as chromogenic hydrogen donor when oxidized, with its absorbance measured at 460 nm in saline solutions (140 mM NaCl, buffered by 3 mM phosphate salts at pH 7.4). Ferrous sulfate or human hemoglobin was added to control and to test solutions containing uric acid or ascorbic acid shortly before the addition of hydrogen peroxide, with oxidized molecules of dianisidine measured promptly. The saline solutions were mimetic of cerebrospinal fluid except devoid of possible confounding other molecules.
Uric Acid Inhibition of Substrate Oxidations Induced by Reaction of Ferrous Sulfate (9.8 Micromolar) with 20 Micromolar Hydrogen Peroxide
Comment: All incubations were done at 25-28° Celsius.
Ascorbic Acid Inhibition at 1.6 mg/dl of Substrate Oxidation Induced by Reaction of Ferrous Sulfate (9.8 Micromolar) with 20 Micromolar Hydrogen Peroxide

human hemoglobin = human hemoglobin (Homo sapiens, UniProt P68871+P69905); experiment: Inhibition of o-dianisidine oxidation by human hemoglobin in reaction with hydrogen peroxide (colorimetric, 460 nm); format: biochemical; conditions: hemoglobin 12 mg/dl, 20 micromolar H2O2
Sequence of human hemoglobin (P69905 2-142 limits assumed): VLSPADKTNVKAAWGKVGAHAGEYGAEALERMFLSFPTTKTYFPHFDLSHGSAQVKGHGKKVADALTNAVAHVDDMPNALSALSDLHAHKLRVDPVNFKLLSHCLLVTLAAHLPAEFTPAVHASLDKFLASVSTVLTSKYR
Sequence of human hemoglobin (P68871 2-147 limits assumed): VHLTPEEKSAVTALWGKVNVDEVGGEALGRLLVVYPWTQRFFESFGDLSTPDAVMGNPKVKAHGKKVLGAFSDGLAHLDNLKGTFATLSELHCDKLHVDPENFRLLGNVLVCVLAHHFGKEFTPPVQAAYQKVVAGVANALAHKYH
Method: as §1
Uric Acid Inhibition of Substrate Oxidation by Human Hemoglobin Level of 12 mg/dl in Reaction with 20 Micromolar Hydrogen Peroxide
Ascorbic Acid Inhibition at 1.6 mg/dl of Substrate Oxidation Induced by Human Hemoglobin Level of 12 mg//dl in Reaction with 20 Micromolar Hydrogen Peroxide
Comments: The inhibition remained virtually complete in EXAMPLE 4 at 10 minutes of continued exposure to the hydrogen peroxide, in spite of greater absorbance increase or oxidation in the control solutions from continuing reaction of the peroxide with the iron that resided in the hemoglobin. […] He used higher concentrations of hemoglobin and hydrogen peroxide (e.g. 0.67 or 0.8 mM of hydrogen peroxide) in phosphate-saline buffer with 2 hour incubations at 37° C.

[2] = cited from earlier work; for elevating human serum uric acid levels when given orally: humans (normal adults and gouty individuals), literature
[3] = known in the art, in words; cited from earlier work
[4] = intravenously, healthy humans; Chamorro A et al., 2004; cited from earlier work
[5] = Ascorbate 1.6 mg/dL, 5 min. after H2O2, n = 4
[6] = Ascorbate 1.6 mg/dL, 10 min. after H2O2, n = 4
[7] = Urate 0.5 mg/dL, 5 min. after H2O2, n 4
[8] = Urate 0.5 mg/dL, 10 min. after H2O2, n 4
[9] = Urate 6.0 mg/dL, 10 min. after H2O2, n 4

- % Inhibition (human hemoglobin; [5]): 100.0 ± 0.0 %
- Absorbance Increase (human hemoglobin; [5]): 0.000 ± 0.000
- % Inhibition (human hemoglobin; [6]): 99.8 ± 1.2 %
- Absorbance Increase (human hemoglobin; [6]): 0.001 ± 0.008
Compound: O=C1O[C@H]([C@@H](O)CO)C(O)=C1O [Ascorbate, L-ascorbic acid]
- Absorbance Increase ([1]; Ascorbate 1.6 mg/dL, 5 min. after H2O2, mean ± s.e.m., n = 4): 0.000 ± 0.000
- % Inhibition [1, 5]: 100.0 ± 0.0 %
- % Inhibition [1, 6]: 100.0 ± 0.0 %
- Absorbance Increase [1, 6]: 0.000 ± 0.000

- % Inhibition (human hemoglobin; [7]): 50.7 ± 7.56 %
- Absorbance Increase (human hemoglobin; [7]): 0.028 ± 0.004
- % Inhibition (human hemoglobin; [8]): 38.8 ± 3.25 %
- Absorbance Increase (human hemoglobin; [8]): 0.052 ± 0.009
- Absorbance Increase (human hemoglobin; Urate 6.0 mg/dL, 5 min. after H2O2, mean ± s.e.m., n 4): 0.006 ± 0.002
- % Inhibition (human hemoglobin; Urate 6.0 mg/dL, 5 min. after H2O2, n 4): 90.6 ± 0.90 %
- % Inhibition (human hemoglobin; [9]): 80.3 ± 3.54 %
- Absorbance Increase (human hemoglobin; [9]): 0.016 ± 0.005
Compound: O=c1[nH]c(=O)c2[nH]c(=O)[nH]c2[nH]1 [Urate, 2,6,8-oxypurine]
- Absorbance Increase ([1]; Urate 0.5 mg/dL, 5 min. after H2O2, 460 nm, mean ± s.e.m., n 5): 0.030 ± 0.003
- % Inhibition ([1]; Urate 0.5 mg/dL, 5 min. after H2O2, mean ± s.e.m., n 5): 36.8 ± 5.3 %
- Absorbance Increase ([1]; Urate 0.5 mg/dL, 10 min. after H2O2, 460 nm, mean ± s.e.m., n 5): 0.034 ± 0.017
- % Inhibition ([1]; Urate 0.5 mg/dL, 10 min. after H2O2, mean ± s.e.m., n 5): 26.5 ± 5.5 %
- Absorbance Increase ([1]; Urate 6.0 mg/dL, 5 min. after H2O2, 460 nm, pH 7.4 saline, 25-28° Celsius, mean ± s.e.m., n 5): 0.012 ± 0.003
- % Inhibition ([1]; Urate 6.0 mg/dL, 5 min. after H2O2, mean ± s.e.m., n 5): 75.3 ± 4.8 %
- Absorbance Increase ([1]; Urate 6.0 mg/dL, 10 min. after H2O2, 460 nm, mean ± s.e.m., n 5): 0.014 ± 0.003
- % Inhibition ([1]; Urate 6.0 mg/dL, 10 min. after H2O2, mean ± s.e.m., n 5): 70.9 ± 4.5 %
- elevating human serum uric acid levels when given orally [2]: ineffective
- solubility in water [3]: difficulty soluble in water
- tolerability of intravenous administration [4]: without untoward effects

Compound: O=c1[nH]cnc2nc[nH]c12 [hypoxanthine]
- raise of serum or plasma uric acid level ([2]; about 0.9 gram given orally (0.1 mmole/kg), persons of near 70 kg, Clifford A J et al., 1976): about 2.4 mg/dL
- elevating human serum uric acid levels when given orally [2]: effectively raise serum uric acid levels
- solubility in water [3]: more soluble in water

Compound: O=c1[nH]c(=O)c2[nH]cnc2[nH]1 [xanthine]
- elevating human serum uric acid levels when given orally [2]: not
- solubility in water [3]: difficulty soluble in water
